Target: T1, CBDN1 (Cellulomonas fimi, UniProt P14090)
T1 construct: Cex leader peptide (secretion signal of the vector) (N); made in house; purified from the culture supernatant
T1 sequence (P14090 33-184): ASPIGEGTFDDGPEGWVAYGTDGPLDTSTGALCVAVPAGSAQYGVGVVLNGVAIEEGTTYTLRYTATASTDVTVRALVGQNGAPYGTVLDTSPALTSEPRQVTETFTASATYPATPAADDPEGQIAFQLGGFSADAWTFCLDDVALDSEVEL
Experiment: Isothermal titration microcalorimetry of oligosaccharide binding
Details: N1 binding, 35° C., Table 8
From the text: The PBP can be obtained following isolation and purification of the enzyme by clipping off the PBP from the remainder of the enzyme. For use in the phase separation system, the PBP is screened for binding to soluble phase-forming oligosaccharides. While any of a number of methods can be used for screening, including NMR alone, NMA/calorimetry, affinity electrophoresis alone, affinity electrophoresis/competition assay, and binding isotherms. Binding equilibrium studies using isothermal titration microcalorimetry (ITC) are preferred. The advantage of isothermal titration microcalorimetry […] in binding equilibrium studies derives from the fact that binding isotherms are defined by the experiment in terms of heats of reaction; as such, they allow a direct estimation of enthalpy (and entropy (changes in addition to the association constant. Thus, a single microcalorimetric titration provides a complete characterization of the binding energetics along with the binding isotherm. (Haynes et al., J. Colloid Interface Sci., (1994) 169:313; Colloids & Surfaces, (1994) 2:517.
Microcalorimetry was used to measure binding thermodynamics for CBDN1 to a wide range of water-soluble oligosaccharides with the aim of identifying a set of suitable ligands for the affinity partition system. […] For both oligosaccharides,CPDN1 binding is as tight or even tighter than nearly all PEG-based affinity ligands (e.g., Cibacron blue-PEG, Procion red-PEG, dinitrophenyl-PEG, diacetic acid-PEG) currently in use in affinity partition systems.

OC[C@H]1O[C@@H](O[C@H]2[C@H](O)[C@@H](O)[C@H](O[C@H]3[C@H](O)[C@@H](O)[C@H](O[C@H]4[C@H](O)[C@@H](O)[C@H](O[C@H]5[C@H](O)[C@@H](O)C(O)O[C@@H]5CO)O[C@@H]4CO)O[C@@H]3CO)O[C@@H]2CO)[C@H](O)[C@@H](O)[C@@H]1O (stereo partly drawn) [Cellopentaose]
-TΔS^o: 0.86 kcal/mol
ΔH^o: -6.8 ± 0.2 kcal/mol

OC[C@H]1O[C@@H](O[C@H]2[C@H](O)[C@@H](O)[C@H](O[C@H]3[C@H](O)[C@@H](O)[C@H](O[C@H]4[C@H](O)[C@@H](O)C(O)O[C@@H]4CO)O[C@@H]3CO)O[C@@H]2CO)[C@H](O)[C@@H](O)[C@@H]1O (stereo partly drawn) [Cellotetraose]
-TΔS^o: 1.4 ± 0.1 kcal/mol
ΔH^o: -6.4 ± 0.2 kcal/mol

OC[C@H]1O[C@@H](O[C@H]2[C@H](O)[C@@H](O)[C@H](O[C@H]3[C@H](O)[C@@H](O)[C@H](O[C@H]4[C@H](O)[C@@H](O)[C@H](O[C@H]5[C@H](O)[C@@H](O)[C@H](O[C@H]6[C@H](O)[C@@H](O)C(O)O[C@@H]6CO)O[C@@H]5CO)O[C@@H]4CO)O[C@@H]3CO)O[C@@H]2CO)[C@H](O)[C@@H](O)[C@@H]1O (stereo partly drawn) [Cellohexaose]
-TΔS^o: 0.79 kcal/mol
ΔH^o: -6.9 ± 0.2 kcal/mol

— patent US6048715A, “Two-phase partition affinity separation system and affinity separated cell-containing composition” (priority 1996, dated 2000)
